Data: the NIST ThermoML archive (doi:10.1021/je700428f)

Assay: xn = mol fraction of the nth substance listed
Conditions: 101 kPa, Liquid; for viscosity: Capillary tube (Ostwald / Ubbelohde) method

COC(C)(C)C [2-methoxy-2-methylpropane] + CCCCCCCCCC
Conditions	mass density [kg/m3]	viscosity [mPa·s]
308.15 K, x1 = 0.5005	719.62	–
308.15 K, x1 = 0.6066	720.2	–
308.15 K, x1 = 0.6866	720.81	–
308.15 K, x1 = 0.7973	721.85	–
308.15 K, x1 = 0.8999	723.26	–
308.15 K, x1 = 1	724.82	–
313.15 K, x1 = 0.1016	–	0.654
313.15 K, x1 = 0.1019	714.7	–
313.15 K, x1 = 0.2002	–	0.614
313.15 K, x1 = 0.2041	714.74	–
313.15 K, x1 = 0.3003	–	0.572
313.15 K, x1 = 0.3077	714.88	–
313.15 K, x1 = 0.3999	715.03	–
313.15 K, x1 = 0.4013	–	0.531
313.15 K, x1 = 0.4992	–	0.491
313.15 K, x1 = 0.5005	715.3	–
313.15 K, x1 = 0.6005	–	0.449
313.15 K, x1 = 0.6066	715.7	–
313.15 K, x1 = 0.6866	716.18	–
313.15 K, x1 = 0.7	–	0.404
313.15 K, x1 = 0.7973	717	–
313.15 K, x1 = 0.8005	–	0.362
313.15 K, x1 = 0.8999	718.16	–
313.15 K, x1 = 1	719.42	–
318.15 K, x1 = 0.1016	–	0.614
318.15 K, x1 = 0.1019	710.81	–
318.15 K, x1 = 0.2002	–	0.579
318.15 K, x1 = 0.2041	710.74	–
318.15 K, x1 = 0.3003	–	0.54
318.15 K, x1 = 0.3077	710.78	–
318.15 K, x1 = 0.3999	710.82	–
318.15 K, x1 = 0.4013	–	0.503
318.15 K, x1 = 0.4992	–	0.462
318.15 K, x1 = 0.5005	710.97	–
318.15 K, x1 = 0.6005	–	0.426
318.15 K, x1 = 0.6066	711.2	–
318.15 K, x1 = 0.6866	711.53	–
318.15 K, x1 = 0.7	–	0.383
318.15 K, x1 = 0.7973	712.1	–
318.15 K, x1 = 0.8999	713.01	–
318.15 K, x1 = 1	713.96	–
323.15 K, x1 = 0.1016	–	0.577
323.15 K, x1 = 0.1019	706.89	–
323.15 K, x1 = 0.2002	–	0.546
323.15 K, x1 = 0.2041	706.73	–
323.15 K, x1 = 0.3003	–	0.51
323.15 K, x1 = 0.3077	706.65	–
323.15 K, x1 = 0.3999	706.59	–
323.15 K, x1 = 0.4013	–	0.476
323.15 K, x1 = 0.4992	–	0.441
323.15 K, x1 = 0.5005	706.6	–
323.15 K, x1 = 0.6005	–	0.406
323.15 K, x1 = 0.6066	706.67	–
323.15 K, x1 = 0.6866	706.84	–
323.15 K, x1 = 0.7	–	0.365
323.15 K, x1 = 0.7973	707.18	–
323.15 K, x1 = 0.8999	707.81	–
328.15 K, x1 = 0.1016	–	0.546
328.15 K, x1 = 0.1019	702.96	–
328.15 K, x1 = 0.2002	–	0.517
328.15 K, x1 = 0.2041	702.7	–
328.15 K, x1 = 0.3003	–	0.483
328.15 K, x1 = 0.3077	702.51	–
328.15 K, x1 = 0.3999	702.33	–
328.15 K, x1 = 0.4013	–	0.451
328.15 K, x1 = 0.4992	–	0.418
328.15 K, x1 = 0.5005	702.22	–
328.15 K, x1 = 0.6005	–	0.386
328.15 K, x1 = 0.6066	702.11	–
328.15 K, x1 = 0.6866	702.11	–
328.15 K, x1 = 0.7	–	0.35
328.15 K, x1 = 0.7973	702.19	–
328.15 K, x1 = 0.8999	702.55	–
333.15 K, x1 = 0.1016	–	0.514
333.15 K, x1 = 0.1019	699	–
333.15 K, x1 = 0.2002	–	0.489
333.15 K, x1 = 0.2041	698.64	–
333.15 K, x1 = 0.3003	–	0.459
333.15 K, x1 = 0.3077	698.34	–
333.15 K, x1 = 0.3999	698.05	–
333.15 K, x1 = 0.4013	–	0.432
333.15 K, x1 = 0.4992	–	0.399
333.15 K, x1 = 0.5005	697.78	–
333.15 K, x1 = 0.6005	–	0.371
333.15 K, x1 = 0.6066	697.5	–
333.15 K, x1 = 0.6866	697.32	–
333.15 K, x1 = 0.7973	697.15	–
338.15 K, x1 = 0.1016	–	0.489
338.15 K, x1 = 0.1019	695.02	–
338.15 K, x1 = 0.2002	–	0.466
338.15 K, x1 = 0.2041	694.56	–
338.15 K, x1 = 0.3003	–	0.438
338.15 K, x1 = 0.3077	694.14	–
338.15 K, x1 = 0.3999	693.73	–
338.15 K, x1 = 0.4013	–	0.413
338.15 K, x1 = 0.4992	–	0.382
338.15 K, x1 = 0.5005	693.31	–
338.15 K, x1 = 0.6005	–	0.359
338.15 K, x1 = 0.6066	692.86	–
338.15 K, x1 = 0.6866	692.58	–
338.15 K, x1 = 0.7973	692.06	–
343.15 K, x1 = 0.1016	–	0.466
343.15 K, x1 = 0.1019	691.02	–
343.15 K, x1 = 0.2002	–	0.445
343.15 K, x1 = 0.2041	690.46	–
343.15 K, x1 = 0.3003	–	0.42
343.15 K, x1 = 0.3077	689.92	–
343.15 K, x1 = 0.3999	689.38	–
343.15 K, x1 = 0.4013	–	0.398
343.15 K, x1 = 0.4992	–	0.369
343.15 K, x1 = 0.5005	688.8	–
343.15 K, x1 = 0.6066	688.18	–
343.15 K, x1 = 0.6866	687.71	–
343.15 K, x1 = 0.7973	686.92	–
348.15 K, x1 = 0.1016	–	0.443
348.15 K, x1 = 0.1019	687.01	–
348.15 K, x1 = 0.2002	–	0.424
348.15 K, x1 = 0.2041	686.34	–
348.15 K, x1 = 0.3003	–	0.402
348.15 K, x1 = 0.3077	685.67	–
348.15 K, x1 = 0.3999	685.01	–
348.15 K, x1 = 0.4013	–	0.383
348.15 K, x1 = 0.5005	684.26	–
348.15 K, x1 = 0.6066	683.43	–
353.15 K, x1 = 0.1016	–	0.422
353.15 K, x1 = 0.1019	682.96	–
353.15 K, x1 = 0.2002	–	0.406
353.15 K, x1 = 0.2041	682.18	–
353.15 K, x1 = 0.3003	–	0.386
353.15 K, x1 = 0.3077	681.38	–
353.15 K, x1 = 0.3999	680.59	–
353.15 K, x1 = 0.4013	–	0.372
353.15 K, x1 = 0.5005	679.69	–
353.15 K, x1 = 0.6066	678.65	–
358.15 K, x1 = 0.1016	–	0.407
358.15 K, x1 = 0.1019	678.89	–
358.15 K, x1 = 0.2002	–	0.388
358.15 K, x1 = 0.2041	678	–
358.15 K, x1 = 0.3003	–	0.372
358.15 K, x1 = 0.3077	677.06	–
358.15 K, x1 = 0.3999	676.14	–
363.15 K, x1 = 0.1019	674.79	–
363.15 K, x1 = 0.2041	673.78	–
363.15 K, x1 = 0.3077	672.71	–
363.15 K, x1 = 0.3999	671.66	–
